Values after ≈ are worked out from the molar mass of the structure shown.
Test system: HeLa
Assay: Cytotoxicity against human HeLa S3 cells
Format: functional, cell-based

Compound	IC50
CC/C=C(\C)[C@H]1OC(=O)[C@H](C)N(C)C(=O)[C@H](C(C)C)NC(=O)CN(C)C(=O)[C@@H](CC(C)C)N(C)C(=O)[C@H](CCCCNC(=O)OC(C)(C)C)NC(=O)[C@@H]([C@@H](C)CC)OC(=O)/C(C)=C/C[C@H](O)[C@@H]1C	0.032 µg/mL (≈ 0.0332 µM)
CC/C=C(\C)[C@H]1OC(=O)[C@H](C)N(C)C(=O)[C@@H](C(C)C)NC(=O)CN(C)C(=O)[C@@H](CC(C)C)N(C)C(=O)[C@H](C(C)C)NC(=O)[C@@H]([C@@H](C)CC)OC(=O)/C(C)=C/C[C@H](O)[C@@H]1C	> 4 µg/mL
CC/C=C(\C)[C@H]1OC(=O)[C@H](C)N(C)C(=O)[C@H](C(C)C)NC(=O)CN(C)C(=O)[C@@H](CC(C)C)N(C)C(=O)[C@H](C(C)C)NC(=O)[C@@H]([C@@H](C)CC)OC(=O)/C(C)=C/C[C@H](O)[C@@H]1C [AURILIDE]	0.0024 µg/mL (≈ 0.00288 µM)
CC/C=C(\C)[C@H]1OC(=O)[C@H](C)N(C)C(=O)[C@H](C(C)C)NC(=O)CN(C)C(=O)[C@@H](CC(C)C)N(C)C(=O)[C@H](C(C)C)NC(=O)[C@@H]([C@@H](C)CC)OC(=O)/C(C)=C/C[C@H](OC(=O)CCCCCNC(=O)CCC(=O)O)[C@@H]1C	0.14 µg/mL (≈ 0.134 µM)
CC/C=C(\C)[C@H]1OC(=O)[C@H](C)N(C)C(=O)[C@H](CCCCNC(=O)OC(C)(C)C)NC(=O)CN(C)C(=O)[C@@H](CC(C)C)N(C)C(=O)[C@H](C(C)C)NC(=O)[C@@H]([C@@H](C)CC)OC(=O)/C(C)=C/C[C@H](O)[C@@H]1C	0.26 µg/mL (≈ 0.27 µM)
CC/C=C(\C)[C@H]1OC(=O)[C@H](C)N(C)C(=O)[C@H](C(C)C)NC(=O)CN(C)C(=O)[C@@H](CC(C)C)N(C)C(=O)[C@H](C(C)C)NC(=O)[C@@H]([C@@H](C)CC)OC(=O)/C(C)=C/C[C@H](OC(=O)CCCCCNC(=O)OCC2c3ccccc3-c3ccccc32)[C@@H]1C	0.42 µg/mL (≈ 0.359 µM)
CC/C=C(\C)[C@H]1OC(=O)[C@H](CCCCNC(=O)OC(C)(C)C)N(C)C(=O)[C@H](C(C)C)NC(=O)CN(C)C(=O)[C@@H](CC(C)C)N(C)C(=O)[C@H](C(C)C)NC(=O)[C@@H]([C@@H](C)CC)OC(=O)/C(C)=C/C[C@H](O)[C@@H]1C	0.02 µg/mL (≈ 0.0202 µM)
CC/C=C(\C)[C@H]1OC(=O)[C@H](C)N(C)C(=O)[C@@H](C(C)C)NC(=O)CN(C)C(=O)[C@@H](CC(C)C)N(C)C(=O)[C@H](C(C)C)NC(=O)[C@@H]([C@@H](C)CC)OC(=O)/C(C)=C/C[C@H](OC(=O)CCCCCNC(=O)CCC(=O)O)[C@@H]1C	> 10 µg/mL
CC/C=C(\C)[C@H]1OC(=O)[C@H](C)N(C)C(=O)[C@H](C(C)C)NC(=O)CN(C)C(=O)[C@@H](CC(C)C)N(C)C(=O)[C@H](C(C)C)NC(=O)[C@@H]([C@@H](C)CC)OC(=O)/C(C)=C/CC[C@@H]1C [DEOXYAURILIDE]	0.017 µg/mL (≈ 0.0208 µM)
